Test results reported in article PMC12116762, “Topobexin targets the Topoisomerase II ATPase domain for beta isoform-selective inhibition and anthracycline cardioprotection” (Nature Communications, 2025).
Several values for one entry are separate records, joined by “and”; a condition that tells them apart may be missing. Equal entries are not always repeated.

How the values were obtained:
recombinant human TOP2B = target: T1, recombinant human TOP2B (Homo sapiens, UniProt Q02880); assay: DNA decatenation assay, recombinant TOP2B; format: biochemical; settings: for SRbeta (SRTOP2B), decatenation activity: TOP2A IC50 divided by TOP2B IC50; for IC50: enzyme expressed in HEK293F, n=3
T1 construct: Using recombinant full-length human TOP2A and TOP2B enzymes; YFP (N, cleaved yes); made in house; host or cells: HEK293F
T1 sequence (Q02880 1-1621 isoform Q02880-2): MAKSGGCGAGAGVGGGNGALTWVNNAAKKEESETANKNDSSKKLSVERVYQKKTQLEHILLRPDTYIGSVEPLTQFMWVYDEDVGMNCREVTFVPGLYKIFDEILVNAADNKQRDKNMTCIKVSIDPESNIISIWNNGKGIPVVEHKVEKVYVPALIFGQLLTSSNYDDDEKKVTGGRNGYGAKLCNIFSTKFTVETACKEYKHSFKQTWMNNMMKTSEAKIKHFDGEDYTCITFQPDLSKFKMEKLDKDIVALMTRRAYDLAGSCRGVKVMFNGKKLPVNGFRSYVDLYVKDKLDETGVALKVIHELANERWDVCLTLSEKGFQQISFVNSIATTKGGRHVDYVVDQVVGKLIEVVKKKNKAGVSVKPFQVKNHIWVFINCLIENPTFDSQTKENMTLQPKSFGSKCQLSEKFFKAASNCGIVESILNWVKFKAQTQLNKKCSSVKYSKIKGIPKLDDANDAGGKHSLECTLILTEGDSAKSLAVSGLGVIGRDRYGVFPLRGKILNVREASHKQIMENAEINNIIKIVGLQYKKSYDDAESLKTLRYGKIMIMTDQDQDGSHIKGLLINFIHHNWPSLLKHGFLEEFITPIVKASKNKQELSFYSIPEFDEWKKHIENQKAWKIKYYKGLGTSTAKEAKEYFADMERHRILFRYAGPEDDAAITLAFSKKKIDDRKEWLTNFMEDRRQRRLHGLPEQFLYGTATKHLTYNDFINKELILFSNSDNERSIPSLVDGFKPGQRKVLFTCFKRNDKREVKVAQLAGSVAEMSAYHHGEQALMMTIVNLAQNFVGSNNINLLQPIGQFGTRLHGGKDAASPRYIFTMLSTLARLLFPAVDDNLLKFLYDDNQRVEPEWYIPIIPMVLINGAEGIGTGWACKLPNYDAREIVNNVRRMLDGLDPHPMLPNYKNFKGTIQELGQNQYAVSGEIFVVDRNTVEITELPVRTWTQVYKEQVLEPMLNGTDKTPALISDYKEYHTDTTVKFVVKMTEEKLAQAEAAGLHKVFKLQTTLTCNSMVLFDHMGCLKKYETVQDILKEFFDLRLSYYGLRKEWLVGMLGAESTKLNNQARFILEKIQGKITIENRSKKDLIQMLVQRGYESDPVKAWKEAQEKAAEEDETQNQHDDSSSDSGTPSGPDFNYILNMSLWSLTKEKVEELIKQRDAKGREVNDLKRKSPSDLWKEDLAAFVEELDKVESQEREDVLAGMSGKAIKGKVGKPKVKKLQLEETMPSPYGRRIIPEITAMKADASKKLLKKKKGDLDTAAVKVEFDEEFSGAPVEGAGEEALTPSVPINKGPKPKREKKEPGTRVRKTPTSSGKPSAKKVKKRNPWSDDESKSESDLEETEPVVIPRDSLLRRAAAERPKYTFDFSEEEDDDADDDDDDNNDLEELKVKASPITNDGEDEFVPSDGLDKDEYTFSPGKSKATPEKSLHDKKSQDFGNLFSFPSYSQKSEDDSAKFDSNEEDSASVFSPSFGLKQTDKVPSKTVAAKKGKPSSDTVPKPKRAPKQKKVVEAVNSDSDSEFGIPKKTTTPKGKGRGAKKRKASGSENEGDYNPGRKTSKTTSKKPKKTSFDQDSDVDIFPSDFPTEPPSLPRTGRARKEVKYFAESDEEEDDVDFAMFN
Protocol: The human topoisomerase II decatenation assay was performed to determine the inhibitory effects of BNS-22 and new compounds as previously described with minor modifications[14],[36]. The assay was performed using recombinant human TOP2A or TOP2B generated using the HEK293F YFP-tag expression system as previously described[18],[19],[36]. Briefly, plasmids encoding YFP-TOP2A or YFP-TOP2B were transfected into HEK293F cells (Catalog number 11625019, Thermofisher Scientific), and TOP2 proteins were isolated from cell lysates by anti-YFP nanobody affinity chromatography. After elution by TEV protease cleavage, TOP2 proteins were FPLC purified by sequential cation exchange and size exclusion chromatography. Plasmid encoding TOP2B C88Y was generated by round-the-horn PCR mutagenesis and the sequence was verified by full-plasmid sequencing. Purified TOP2 proteins were stored in a storage buffer containing 20 mM HEPES pH 7.5, 500 mM NaCl, 0.5 mM TCEP, 25% (v/v) glycerol at -80 °C. For decatenation assays, purified TOP2 proteins were incubated with 200 ng kDNA (Topogen) in a reaction buffer containing 50 mM Tris−HCl (pH 8), 100 mM NaCl, 10 mM MgCl2, 0.5 mM DTT, 2 mM ATP, 0.1 mM tris(2-carboxyethyl)phosphine (TCEP), 5% (v/v) glycerol, 70 μg/mL bovine serum albumin, and 1/10 volume of each compound diluted in 10% DMSO (final DMSO concentration 1%) for 40 min at 37 °C. The reaction was then stopped by the addition of gel loading buffer (0.5 volumes of 60% (w/v) glycerol, 60 mM EDTA, 20 mM Tris−HCl (pH 7.5), 0.5 mg/mL bromophenol blue) and the samples were placed on ice. Reaction products were resolved by agarose gel electrophoresis in TBE buffer containing GelRed stain (Biotium). Gels were visualized using an iBright CL1000 (Thermofisher Scientific). Band intensities were quantified using FIJI, and the signal of the treated samples was normalized to the value of the control (untreated sample; 100%) present on the same gel. The normalized signal of three independent measurements was then expressed as mean ± SD. Each presented data point was obtained from distinct sample. Normalized values were plotted as a function of inhibitor concentration to determine IC50 values by nonlinear regression with variable slope using Prism 9 (GraphPad).

[1] = system: neonatal rat ventricular cardiomyocytes (NVCM); assay: Inherent toxicity (LDH release) in NVCM; format: cell-based; design: key to LDH release (inherent toxicity), mean of independent replicates: % of total LDH activity; settings: for LTC = lowest toxic concentration / LDH release (inherent toxicity), mean of independent replicates: NVCM; for LTC = lowest toxic concentration: compound alone, n=4
In short: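 Primary neonatal Wistar rat cardiomyocytes in serum- and pyruvate-free DMEM/F12 were pretreated with compound 3 h, then co-incubated 3 h with DAU (1.2 µM), or without DAU for inherent toxicity, then given a 48 h drug-free follow-up. Medium LDH activity (NAD+ reduction at 340 nm) expressed as % of total LDH.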

[2] = compound alone 0.01 µM, Suppl.Fig.4
[3] = compound alone 0.1 µM, Suppl.Fig.4
[4] = compound alone 1 µM, Suppl.Fig.4
[5] = compound alone 10 µM, Suppl.Fig.4

## CCCc1cc(=O)oc2c(C(=O)N3CCCc4ccccc43)c(OCCO)ccc12 [5c]
Recombinant human TOP2B; 0.059 μM, independent replicates, read-out: Normalized % TOP2B activity, decatenation
  remaining activity at 0.059 µM: 106%
Recombinant human TOP2B; 0.117 μM, independent replicates, read-out: Normalized % TOP2B activity, decatenation
  remaining activity at 0.117 µM: 112%
Recombinant human TOP2B; 0.938 μM, independent replicates, read-out: Normalized % TOP2B activity, decatenation
  remaining activity at 0.938 µM: 66.9%
Recombinant human TOP2B; 1.875 μM, independent replicates, read-out: Normalized % TOP2B activity, decatenation
  remaining activity at 1.875 µM: 29.8%
Recombinant human TOP2B
  SRbeta (SRTOP2B), decatenation activity: 2.2
  IC50: 1430 nM
[1]
  LTC = lowest toxic concentration: 100 µM
[1]; [2]
  LDH release (inherent toxicity), mean of independent replicates: 14.5952
[1]; [3]
  LDH release (inherent toxicity), mean of independent replicates: 14.7832
[1]; [4]
  LDH release (inherent toxicity), mean of independent replicates: 14.0641
[1]; [5]
  LDH release (inherent toxicity), mean of independent replicates: 18.571
[1]; compound alone 30 µM, Suppl.Fig.4
  LDH release (inherent toxicity), mean of independent replicates: 18.0914
[1]; compound alone 100 µM, Suppl.Fig.4
  LDH release (inherent toxicity), mean of independent replicates: 21.5856

## CCCc1cc(=O)oc2c(C(=O)N3CCCc4ccccc43)c(OC)cc(OC)c12 [BNS-22]
Recombinant human TOP2B; 0.029 μM, independent replicates
  Normalized % TOP2B activity, decatenation: 110.4% and 102.5% and 86.14%
Recombinant human TOP2B; 0.059 μM, independent replicates
  Normalized % TOP2B activity, decatenation: 117.4% and 95.62% and 85.84%
Recombinant human TOP2B; 0.117 μM, independent replicates
  Normalized % TOP2B activity, decatenation: 120.4% and 94.08% and 92.01%
Recombinant human TOP2B; 0.234 μM, independent replicates
  Normalized % TOP2B activity, decatenation: 93.24% and 96.15% and 88.28%
Recombinant human TOP2B; 0.469 μM, independent replicates
  Normalized % TOP2B activity, decatenation: 119.4% and 102% and 86.29%
Recombinant human TOP2B; 0.938 μM, independent replicates
  Normalized % TOP2B activity, decatenation: 128.5% and 90.51% and 82.07%
Recombinant human TOP2B; 1.875 μM, independent replicates
  Normalized % TOP2B activity, decatenation: 113% and 60.36% and 75.6%
Recombinant human TOP2B; 3.750 μM, independent replicates
  Normalized % TOP2B activity, decatenation: 78.05% and 36.23% and 45.78%
Recombinant human TOP2B; 7.500 μM, independent replicates
  Normalized % TOP2B activity, decatenation: 36.99% and 17.69% and 24.26%
Recombinant human TOP2B; 15.000 μM, independent replicates
  Normalized % TOP2B activity, decatenation: 19.21% and 12.13% and 18.98%
Recombinant human TOP2B; 30.000 μM, independent replicates
  Normalized % TOP2B activity, decatenation: 18.37% and 9.163% and 14.61%
Recombinant human TOP2B
  SRbeta (SRTOP2B), decatenation activity: 1.6
  IC50: 4000 nM
[1]
  LTC = lowest toxic concentration: > 10 µM
[1]; [2]
  LDH release (inherent toxicity), mean of independent replicates: 12.6739
[1]; [3]
  LDH release (inherent toxicity), mean of independent replicates: 12.9938
[1]; [4]
  LDH release (inherent toxicity), mean of independent replicates: 12.9269
[1]; compound alone 3 µM, Suppl.Fig.4
  LDH release (inherent toxicity), mean of independent replicates: 14.5033
[1]; [5]
  LDH release (inherent toxicity), mean of independent replicates: 16.9772

## C[C@@H](CN1CC(=O)NC(=O)C1)N1CC(=O)NC(=O)C1 [dexrazoxane]
Recombinant human TOP2B; 0.029 μM, independent replicates, read-out: Normalized % TOP2B activity, decatenation
  remaining activity at 0.029 µM: 88.8%
Recombinant human TOP2B; 0.469 μM, independent replicates, read-out: Normalized % TOP2B activity, decatenation
  remaining activity at 0.469 µM: 75.2%
Recombinant human TOP2B; 15.000 μM, independent replicates, read-out: Normalized % TOP2B activity, decatenation
  remaining activity at 15 µM: 12.9%
Recombinant human TOP2B; 30.000 μM, independent replicates, read-out: Normalized % TOP2B activity, decatenation
  remaining activity at 30 µM: 5.87%
Recombinant human TOP2B
  SRbeta (SRTOP2B), decatenation activity: 0.75
  IC50: 4500 nM

## CCCc1cc(=O)oc2c(C(=O)N3CCCc4ccccc43)c(OCCN3CCN(C)CC3)ccc12 [topobexin (9)]
Recombinant human TOP2B; 0.039 μM, independent replicates, read-out: Normalized % TOP2B activity, decatenation
  remaining activity at 0.039 µM: 92.3%
Recombinant human TOP2B; 0.313 μM, independent replicates, read-out: Normalized % TOP2B activity, decatenation
  remaining activity at 0.313 µM: 29.3%
Recombinant human TOP2B; 0.625 μM, independent replicates, read-out: Normalized % TOP2B activity, decatenation
  remaining activity at 0.625 µM: 15.5%
Recombinant human TOP2B; 1.250 μM, independent replicates, read-out: Normalized % TOP2B activity, decatenation
  remaining activity at 1.25 µM: 10.9%
Recombinant human TOP2B; 2.500 μM, independent replicates, read-out: Normalized % TOP2B activity, decatenation
  remaining activity at 2.5 µM: 11.1%
Recombinant human TOP2B; 5.000 μM, independent replicates, read-out: Normalized % TOP2B activity, decatenation
  remaining activity at 5 µM: 9.87%
Recombinant human TOP2B; 20.000 μM, independent replicates, read-out: Normalized % TOP2B activity, decatenation
  remaining activity at 20 µM: 5.03%
Recombinant human TOP2B
  SRbeta (SRTOP2B), decatenation activity: 25
  IC50: 190 nM
[1]
  LTC = lowest toxic concentration: > 100 µM
[1]; compound 100 µM alone
  LDH release, mean: 16.49 % of total LDH
[1]; compound 100 µM alone, independent replicates
  LDH release: 16.0714 % of total LDH and 14.563 % of total LDH and 13.722 % of total LDH and 21.6038 % of total LDH
[1]; compound alone 0.01 µM, Suppl.Fig.6c
  LDH release (inherent toxicity), mean of independent replicates: 15.0001
[1]; compound alone 0.1 µM, Suppl.Fig.6c
  LDH release (inherent toxicity), mean of independent replicates: 13.7512
[1]; compound alone 1 µM, Suppl.Fig.6c
  LDH release (inherent toxicity), mean of independent replicates: 12.2924
[1]; compound alone 10 µM, Suppl.Fig.6c
  LDH release (inherent toxicity), mean of independent replicates: 14.4604
[1]; compound alone 30 µM, Suppl.Fig.6c
  LDH release (inherent toxicity), mean of independent replicates: 15.0547
[1]; compound alone 100 µM, Suppl.Fig.6c
  LDH release (inherent toxicity), mean of independent replicates: 16.49
